{
  "source": "patent US20110275667A1",
  "about": "“COMPOSITIONS USEFUL FOR TREATING GASTROESOPHAGEAL REFLUX DISEASE” (EDUSA Pharmaceuticals, Inc., priority 2007, published 2011)",
  "key": {"healthy volunteers [1]": {"test_system": "healthy volunteers", "assay": "Phase 1b crossover clinical trial: reflux events measured by multichannel intraluminal impedance and pH (MII-pH) after a refluxogenic meal", "format": "in vivo, human", "experimental": "The clinical trial reported here was a Phase 1b, randomized, double-blind placebo-controlled, crossover study. In the Study, 28 healthy volunteers were administered doses of DDP733 (0.5, 0.8 and 1.4 mg) and placebo and then given a refluxogenic meal. For a period of two hours after completion of the refluxogenic meal, reflux events were measured using intraesophageal impedance.\nPhase 1b, randomized, double-blinded, placebo controlled, crossover study.\nThree Study Periods: Total Number of Visits=4 • (1) Ten-day screening period (2 visits); • (2) Two week treatment period (Days 1-14) (2 visits: Day 1 which is on the same day as the second screening visit, and Day 8); and • (3) One day end of study period (1 visit).\nSubjects were randomized into a treatment group on Day 1 (the same day as visit 2 of the screening period). For the completed study, each subject was exposed to one of the dose levels of DDP733 (i.e., 0.5 mg, 0.8 mg and 1.4 mg) and to placebo in randomized sequence to complete approximately one week of dosing with each of the two dosing regimens (DDP733 and placebo). The six treatment sequences were:\nFor example, there were 7 subjects in the study who received the 0.5 mg dose of DDP733. At the commencement of dosing period 1, three subjects in the 0.5 mg group received placebo and 4 subjects received 0.5 mg of drug. […]\n(§1) After randomization, subjects received a first dose of study medication (Day 1). The medication was administered under supervision and the subjects were then evaluated by manometry to assess LES position and pressure and by a multichannel intraluminal impedance and pH (MII-pH) procedures to measure the number of reflux events following ingestion of a refluxogenic meal (sausage and egg breakfast sandwich and 8 oz. cup of coffee). […]\n• Primary: Reduction in esophageal reflux during a provocative procedure (following a refluxogenic meal) as measured by MII-pH; • Secondary: • (a) Change in reflux related symptoms (heartburn, regurgitation, acid taste) associated with ingestion of a refluxogenic meal; and • (b) Change in lower esophageal sphincter pressure. […]"}, "healthy volunteers [2]": {"test_system": "healthy volunteers", "assay": "Phase 1b clinical trial: lower esophageal sphincter pressure (LESP) by manometry", "format": "in vivo, human", "conditions": "0.5 mg, 0.8 mg and 1.4 mg", "experimental": "as §1, with “coffee). The supervised dose was the only dose administered on this initial day of testing (Day 1). Subjects continued dosing for a further five day, then had one day with no study medication before returning for the next visit on Day 8. The same procedure was performed on Day 8 of the treatment period (i.e., the first day of the second dosing period).” for “coffee).”\n(§2) • Primary: Reduction in esophageal reflux during a provocative procedure (following a refluxogenic meal) as measured by MII-pH; • Secondary: • (a) Change in reflux related symptoms (heartburn, regurgitation, acid taste) associated with ingestion of a refluxogenic meal; and • (b) Change in lower esophageal sphincter pressure."}, "healthy volunteers [3]": {"test_system": "healthy volunteers", "assay": "Phase 1b clinical trial: reflux related symptoms (heartburn, regurgitation, acid taste) associated with refluxogenic meal", "format": "in vivo, human", "conditions": "0.5 mg, 0.8 mg and 1.4 mg", "experimental": "In addition to assessment of the LESP and number of reflux events, subjects were also assessed on Days 1 and 8 to determine the frequency of the following symptoms: heartburn; regurgitation; and acid taste associated with the refluxogenic meal.\nas §2"}, "healthy volunteers [4]": {"test_system": "healthy volunteers", "assay": "Phase 1b clinical trial: safety and tolerability (vital signs, adverse events, clinical laboratory testing, ECGs)", "format": "in vivo, human", "from_the_text": "Characterize the safety and tolerability of DDP733 in volunteers.\nSafety measurements included monitoring of vital signs and adverse events, clinical laboratory testing and performance of electrocardiograms (ECGs)."}, "Humans": {"test_system": "Humans", "conditions": "cited from earlier work"}, "gastric acid": {"test_system": "gastric acid", "conditions": "cited from earlier work"}},
  "note": "Like-named read-outs stand apart in the source and are kept apart here.",
  "data": [
    {"compound": "O=C(N[C@H]1CN2CCC1CC2)c1c[nH]c2ccsc2c1=O", "note": "[DDP733, (R)—N-1-azabicyclo[2.2.2]oct-3-yl-4,7-dihydro-7-oxothieno[3,2-b]pyridine-6-carboxamide]", "values": [
      {"measurement": "statistical significance on primary clinical endpoint of reduction in the number of reflux events versus placebo", "setting": "healthy volunteers [1]; 0.5 mg dose, p=0.0313, Wilcoxon signed-rank test", "value": "achieved statistical significance"},
      {"measurement": "reduction in the number of reflux events versus placebo", "setting": "healthy volunteers [1]; 0.8 mg dose", "value": "did not show a statistically significant reduction"},
      {"measurement": "reduction in the number of reflux events versus placebo", "setting": "healthy volunteers [1]; 1.4 mg dose", "value": "did not show a statistically significant reduction"},
      {"measurement": "LESP versus placebo (secondary endpoint)", "setting": "healthy volunteers [2]", "value": "no statistically significant differences"},
      {"measurement": "reflux related symptoms versus placebo (secondary endpoint)", "setting": "healthy volunteers [3]", "value": "no statistically significant differences"},
      {"measurement": "adverse events (AEs) leading to discontinuation", "setting": "healthy volunteers [4]; all doses", "value": "no adverse events (AEs) leading to discontinuation"},
      {"measurement": "significant adverse events (SAEs)", "setting": "healthy volunteers [4]; all doses", "value": "no significant adverse events (SAEs) reports"},
      {"measurement": "safety and tolerability", "setting": "healthy volunteers [4]; all doses (0.5, 0.8, 1.4 mg)", "value": "safe and well tolerated"},
      {"measurement": "time to resolution of drug related adverse events", "setting": "healthy volunteers [4]; did not require medication", "value": "1 to 5", "unit": "days"},
      {"measurement": "liver or cardiac abnormalities", "setting": "healthy volunteers [4]; human, in vivo", "value": "No liver or cardiac abnormalities were observed"},
      {"measurement": "severity of drug related adverse events (nausea, vomiting, pruritus, rash, rash macular, flush/hot flush, abdominal pain/discomfort)", "setting": "healthy volunteers [4]; human, in vivo", "value": "mild/moderate"},
      {"measurement": "effect on increasing gastric emptying", "setting": "Humans; 0.2 mg dose", "value": "no significant effect"},
      {"measurement": "effect on the fundus", "setting": "Humans; 0.2 mg dose", "value": "no significant effect"},
      {"measurement": "effect on increasing gastric emptying", "setting": "Humans; 1.0 mg dose", "value": "no significant effect"},
      {"measurement": "effect on the fundus", "setting": "Humans; 1.0 mg dose", "value": "no significant effect"},
      {"measurement": "effect on gastric emptying", "setting": "Humans; 4.0 mg dose", "value": "delays gastric emptying"},
      {"measurement": "effect on the fundus", "setting": "Humans; 4.0 mg dose", "value": "relaxes the fundus"},
      {"measurement": "gastric acid suppressing activity", "setting": "gastric acid", "value": "has gastric acid suppressing activity"}
    ]}
  ]
}
